Patent US6444217B1, “Drug delivery devices, and methods of use” (University of Washington, priority 2000, dated 2002)

Test system: 3T3-L1 adipocyte cells
Assay: ability of released insulin to regulate 14C-deoxyglucose uptake
Type: cell-based
Settings: 14C-deoxyglucose uptake by cultured 3T3-L1 adipocyte cells

## insulin
  biological activity of released insulin: retains its biological activity
